Patent US8562949B2, “Radiolabeled dihydrotetrabenazine derivatives and their use as imaging agents” (The Trustees of the University of Pennsylvania, priority 2006, dated 2013)

Molecular target: VMAT2 (Rattus norvegicus, UniProt Q01827)
Assay: Competition for [3H](±)TBZ binding in rat striatal homogenates
Design: The basal forebrain regions of rat and mouse brains were then dissected; from tissue; host or cells: rat striatum / basal forebrain homogenate
Conditions: Kd […] used for calculation

VMAT2, sequence (Q01827 whole entry): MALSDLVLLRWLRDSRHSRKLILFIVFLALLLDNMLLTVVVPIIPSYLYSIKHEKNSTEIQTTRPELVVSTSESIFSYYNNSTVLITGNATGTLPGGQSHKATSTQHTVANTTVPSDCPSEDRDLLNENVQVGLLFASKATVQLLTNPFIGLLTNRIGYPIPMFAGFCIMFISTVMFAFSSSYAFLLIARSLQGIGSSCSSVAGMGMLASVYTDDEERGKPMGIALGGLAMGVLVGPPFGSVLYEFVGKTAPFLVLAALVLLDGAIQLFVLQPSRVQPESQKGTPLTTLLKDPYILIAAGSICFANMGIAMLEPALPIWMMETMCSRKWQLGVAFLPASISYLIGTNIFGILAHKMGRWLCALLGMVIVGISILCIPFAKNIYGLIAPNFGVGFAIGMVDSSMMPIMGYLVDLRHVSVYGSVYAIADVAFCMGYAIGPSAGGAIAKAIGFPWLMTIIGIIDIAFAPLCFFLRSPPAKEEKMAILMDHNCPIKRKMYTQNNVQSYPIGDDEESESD

SMILES	Ki ([3H](±)TBZ 1.0-1.5 nM)	Ki ([3H](±)-TBZ)
COc1cc2c(cc1O)CCN1CC(CC(C)C)C(O)CC21 (racemic) [3,9-desmethyl-(±)DTBZ, (±)-9-O-Desmethyldihydrotetrabenazine, reference compound]	11.8 ± 1.7 nM	
COc1cc2c(cc1OCCCF)CCN1CC(CC(C)C)C(O)CC21 (racemic) [Compound 6b, (±)-2-hydroxy-3-isobutyl-9-(3-fluoropropoxy)-10-methoxy-1,2,3,4,6,7-hexahydro-11bH-benzo[a]quinolizine]		0.19 ± 0.04 nM
